Source: the supplement of paper PMC10307832

Columns and labels:
Experiment in all cases: relative viability (nuclei count vs DMSO), 5 days (fraction); higher = more cells survive
[1] = compound: CC1=CN=C(N=C1C2=CNC(=C2)C(=O)N[C@H](CO)C3=CC(=CC=C3)Cl)NC4=C(C=C(C=C4)F)Cl [VX-11e] + COc1cccc2cc(-c3nc([C@H]4CC[C@H](C(=O)O)CC4)n4ncnc(N)c34)[nH]c12 [OSI-027] (partner 0.5 µM)
Method in brief: (§1)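 Five library-drug doses in √10 steps were combined with a fixed anchor-drug dose, or a single drug was given alone, by pin tool to lung cancer cell lines in 1536-well plates the day after seeding. Nuclei were stained and counted after 5 days. Relative viability is the nuclei count in treated wells over that in vehicle wells, taken as the median of duplicate plates.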

[2] = compound: CC1=CN=C(N=C1C2=CNC(=C2)C(=O)N[C@H](CO)C3=CC(=CC=C3)Cl)NC4=C(C=C(C=C4)F)Cl [VX-11e] + COc1cc2c(Oc3ccc(NC(=O)C4(C(=O)Nc5ccc(F)cc5)CC4)cc3F)ccnc2cc1OCCCN1CCOCC1 [Foretinib] (partner 0.25 µM)
Method in brief: as §1

[3] = compound: CC1=CN=C(N=C1C2=CNC(=C2)C(=O)N[C@H](CO)C3=CC(=CC=C3)Cl)NC4=C(C=C(C=C4)F)Cl [VX-11e] + CC(=O)c1c(C)c2cnc(Nc3ccc(N4CCNCC4)cn3)nc2n(C2CCCC2)c1=O [Palbociclib] (partner 0.5 µM)
Method in brief: as §1

[4] = compound: CC1=CN=C(N=C1C2=CNC(=C2)C(=O)N[C@H](CO)C3=CC(=CC=C3)Cl)NC4=C(C=C(C=C4)F)Cl [VX-11e]
Method in brief: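 For viability, nuclei in each treated well were divided by nuclei in vehicle wells and the median across plates was taken. Lung cancer cell lines in 1536-well plates were pinned with five library-drug doses (not always all listed) spaced by √10, cultured 5 days without medium change, and imaged at 4× after Hoechst staining, with plates passing only at control CV below 25% and at least one doubling.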

| Cell Line | relative viability ([1]; first compound 0.04 µM) | relative viability ([1]; first compound 0.1265 µM) | relative viability ([1]; first compound 0.4 µM) | relative viability ([1]; first compound 1.265 µM) | relative viability ([1]; first compound 4 µM) | relative viability ([2]; first compound 0.04 µM) | relative viability ([2]; first compound 0.1265 µM) | relative viability ([2]; first compound 4 µM) | relative viability ([3]; first compound 0.04 µM) | relative viability ([3]; first compound 0.1265 µM) | relative viability ([3]; first compound 0.4 µM) | relative viability ([3]; first compound 1.265 µM) | relative viability ([3]; first compound 4 µM) | relative viability ([4]; 0.04 µM) | relative viability ([4]; 0.1265 µM) | relative viability ([4]; 0.4 µM) | relative viability ([4]; 1.265 µM) | relative viability ([4]; 4 µM) | relative viability ([2]; first compound 0.4 µM) | relative viability ([2]; first compound 1.265 µM) |
| --- | --- | --- | --- | --- | --- | --- | --- | --- | --- | --- | --- | --- | --- | --- | --- | --- | --- | --- | --- | --- |
| 201T | 0.728 | 0.678 | 0.823 | 0.603 | 0.645 | 1.12 | 0.959 | 1.03 | 0.206 | 0.337 | 0.361 | 0.353 | 0.348 | 0.971 | 0.985 | 0.883 | 0.691 | 0.951 | – | – |
| A-427 | 0.334 | 0.19 | 0.309 | 0.215 | 0.183 | 1.14 | 1.01 | 0.342 | 0.553 | 0.442 | 0.516 | 0.496 | 0.336 | 0.862 | 0.854 | 0.927 | 0.933 | 0.419 | 0.835 | 0.805 |
| ABC-1 | 0.309 | 0.426 | 0.374 | 0.339 | 0.278 | 1.48 | 0.996 | 0.826 | 0.568 | – | 0.655 | 0.548 | 0.65 | 0.83 | 0.888 | 0.938 | 0.83 | 0.723 | 0.899 | 1.16 |
| BEN | – | 0.274 | 0.302 | 0.285 | 0.242 | – | 0.633 | 0.557 | 0.46 | 0.401 | 0.465 | 0.47 | 0.431 | – | 0.903 | 1.03 | 0.662 | 0.782 | 0.966 | 0.451 |
| CAL-12T | 0.402 | 0.523 | 0.424 | 0.312 | 0.199 | 1.1 | 1.03 | 0.561 | 0.391 | 0.433 | 0.331 | 0.141 | 0.116 | 0.955 | 0.942 | 0.964 | 0.715 | 0.376 | 1.07 | 1.07 |
| COR-L23 | 0.733 | 0.591 | 0.579 | 0.347 | 0.185 | 1.1 | 0.939 | 0.373 | 0.376 | 0.274 | 0.225 | 0.183 | 0.123 | 1.17 | 0.92 | 0.975 | 0.778 | 0.358 | 0.964 | 0.749 |
| COR-L 105 | 0.541 | 0.802 | 0.552 | 0.326 | 0.254 | 1.39 | 1.1 | 0.653 | 0.425 | 0.414 | 0.396 | 0.386 | 0.363 | 0.845 | 0.894 | 0.845 | 0.516 | 0.383 | 0.963 | 0.562 |
| Calu-6 | – | – | – | – | – | 0.969 | 0.869 | 0.103 | – | – | – | – | – | 1.08 | 0.978 | 0.975 | 0.513 | 0.163 | 0.829 | 0.397 |
| ChaGo-K-1 | 0.546 | 0.533 | 0.395 | 0.527 | 0.439 | 0.878 | 0.855 | 0.928 | 0.982 | 0.821 | 0.915 | 0.947 | 0.845 | 0.926 | 0.903 | 0.925 | 1.03 | 0.905 | 0.941 | 0.923 |
| EBC-1 | – | – | – | – | – | 0.104 | 0.107 | 0.109 | – | – | – | – | – | 1.06 | 1.01 | 0.765 | 0.77 | 0.221 | 0.0992 | 0.111 |
| EKVX | 0.692 | 0.661 | 0.703 | 0.667 | 0.223 | 0.765 | 0.927 | 0.466 | 0.397 | 0.378 | 0.452 | 0.368 | 0.19 | 0.906 | 1.03 | 0.953 | 0.898 | 0.489 | 0.812 | 0.675 |
| EMC-BAC-2 | 0.312 | 0.387 | 0.458 | 0.421 | 0.357 | 1.05 | 0.921 | 0.697 | 0.563 | 0.459 | 0.533 | 0.553 | 0.432 | 0.903 | 0.875 | 1.43 | 0.998 | 0.663 | 1.08 | 0.982 |
| EPLC-272H | 0.257 | 0.219 | – | 0.199 | 0.165 | 0.622 | 0.559 | 0.261 | 0.339 | 0.293 | – | 0.295 | 0.235 | 0.787 | 0.759 | 0.556 | 0.706 | 0.419 | – | 0.361 |
| H3255 | 0.52 | 0.601 | 0.559 | 0.637 | 0.407 | 0.734 | 0.963 | 0.948 | 0.312 | 0.305 | 0.316 | 0.316 | 0.327 | 1.03 | 0.925 | 0.896 | 0.911 | 0.875 | 0.87 | 0.918 |
| HARA | 0.269 | 0.372 | 0.279 | 0.186 | 0.0641 | 0.857 | 0.856 | 0.343 | 0.337 | 0.237 | 0.196 | 0.158 | 0.178 | 0.969 | 0.939 | 0.832 | 0.427 | 0.326 | 0.841 | 0.734 |
| HCC-15 | 0.616 | 0.624 | – | 0.227 | 0.153 | 1.07 | 0.897 | 0.357 | 0.838 | 0.627 | – | 0.445 | 0.249 | 1.05 | 1.01 | – | 0.669 | 0.285 | – | 0.558 |
| HCC-44 | 0.485 | 0.453 | 0.144 | 0.247 | 0.284 | – | – | – | 0.984 | 0.885 | 0.96 | 1.07 | 1.29 | 1 | 0.941 | 0.907 | 0.915 | 0.733 | – | – |
